Assay [1] relates to K562. The experiment in a line: Cytotoxicity against human K562 cells. It counts as functional, cell-based.
Assay [2] is described as follows: Cytotoxicity against human HL60 cells. It counts as functional, cell-based. The following applies: HL-60.
Assay [3] deals with Influenza A virus. The experiment in a line: Antiviral activity against influenza A virus (A/Puerto Rico/8/34(H1N1)) infected in MDCK cells assessed as inhibition of virus-induced cytopathic effect after 48 hrs by crystal violet staining assay. It counts as functional, organism-based. The following applies: A/Puerto Rico/8/1934(H1N1). A general note: Protection from cytopathic effect is a common read-out in antiviral testing.

The text below walks through data of ChEMBL document CHEMBL3351981, “Eleganketal A, a highly oxygenated dibenzospiroketal from the marine-derived fungus Spicaria elegans KLA03” (J Nat Prod, 2014).

The IC50 is the point on the concentration scale where inhibition reaches its midpoint. `COc1c(C)c2c(c(OC)c1OC)C(=O)[C@]1(OC2)OCc2c(C)c(OC)c(OC)c(OC)c21`: the IC50 in assay [1] and in assay [2] was greater than 50 µM each time.
On to `COc1c(C)c2c(c(OC)c1OC)C(=O)[C@@]1(OC2)OCc2c(C)c(OC)c(OC)c(OC)c21`, for which the values for the IC50 in assay [3], in assay [1] and in assay [2] were 149 µM, greater than 50 µM and greater than 50 µM, respectively.
Regarding `COc1c(C)c2c(c(OC)c1OC)C(=O)C1(OC2)OCc2c(C)c(OC)c(OC)c(OC)c21` (racemic), the IC50 in assay [1] and in assay [2] was greater than 50 µM each time.
Regarding `NC(=O)c1ncn([C@@H]2O[C@H](CO)[C@@H](O)[C@H]2O)n1` [RIBAVIRIN], the IC50 in assay [3] was 101 µM.
